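Briefly, cells in 96-well plates were exposed to five compound concentrations for 48 h, and endpoints were estimated by linear interpolation. GI50 marks 50% less growth. TGI: concentration producing complete growth inhibition.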
What was measured:
Test in all cases: DTP human tumour cell line panel, 48 h; in the data active = GI50 below about 0.43 µM; inactive = the rest
[1] = test system: EKVX NSCLC
[2] = test system: RPMI-8226 leukemia
[3] = test system: TK-10 renal
[4] = test system: HCT-15 colon
[5] = test system: HCC-2998 colon
[6] = test system: U251 CNS
[7] = test system: COLO 205 colon
[8] = test system: KM12 colon
[9] = test system: SNB-19 CNS
[10] = test system: DU-145 prostate
[11] = test system: PC-3 prostate
[12] = test system: SF-295 CNS
[13] = test system: MDA-MB-435
[14] = test system: HS 578T breast
[15] = test system: NCI-H522 lung
[16] = test system: A498 renal
[17] = test system: HL-60(TB) leukemia
[18] = test system: M14 melanoma
[19] = test system: SK-OV-3 ovarian
[20] = test system: MDA-MB-468 breast
[21] = test system: MDA-MB-231 breast
[22] = test system: K-562 leukemia
[23] = test system: HCT-116 colon
[24] = test system: RXF 393 renal
[25] = test system: NCI-H226 lung
[26] = test system: MCF7 breast
[27] = test system: CCRF-CEM leukemia
[28] = test system: OVCAR-4 ovarian
[29] = test system: MALME-3M melanoma
[30] = test system: HT29 colon
[31] = test system: LOX IMVI melanoma
[32] = test system: ACHN renal
[33] = test system: SNB-75 CNS
[34] = test system: 786-0 renal
[35] = test system: UACC-62 melanoma
[36] = test system: OVCAR-3 ovarian
[37] = test system: SN12C renal
[38] = test system: SF-539 CNS
[39] = test system: NCI-H460 lung
[40] = test system: NCI/ADR-RES ovarian
[41] = test system: SK-MEL-5 melanoma
[42] = test system: BT-549 breast
[43] = test system: HOP-92 NSCLC
[44] = test system: OVCAR-5 ovarian
[45] = test system: SK-MEL-2 melanoma
[46] = test system: UACC-257 melanoma
[47] = test system: A549 NSCLC
[48] = test system: SR leukemia
[49] = test system: OVCAR-8 ovarian
[50] = test system: NCI-H23 lung
[51] = test system: HOP-62 NSCLC
[52] = test system: SF-268 CNS
[53] = test system: UO-31 renal
[54] = test system: SW-620 colon
[55] = test system: T-47D breast
[56] = test system: IGROV1 ovarian
[57] = test system: MOLT-4 leukemia
[58] = test system: CAKI-1 renal
[59] = test system: SK-MEL-28 melanoma

COc1c2c(cc3c1C(CCc1ccccc1)N(C)CC3)OCO2 (stereo not given)
49.2 µM: TGI [55]
70 µM: TGI [8]
26.8 µM: TGI [41]
98.3 µM: TGI [45]
36.5 µM: TGI [7] | TGI [13] | TGI [18]
43.9 µM: TGI [35]
19.4 µM: TGI [31]
35.5 µM: TGI [38] | TGI [42]
43.1 µM: TGI [26]
27.4 µM: TGI [20]
62.6 µM: TGI [56]
inactive: GI50 [1] 30.5 µM | GI50 [2] 6.07 µM | GI50 [3] 47.2 µM | GI50 [4] 22.5 µM | GI50 [5] 18.1 µM | GI50 [6] 24.5 µM | GI50 [7] 10.4 µM | GI50 [8] 21.4 µM | GI50 [9] 21.7 µM | GI50 [10] 36 µM | GI50 [11] 11.3 µM | GI50 [12] 4.34 µM | GI50 [13] 6.25 µM | GI50 [14] 14.2 µM | GI50 [15] 18.4 µM | GI50 [16] 12.1 µM | GI50 [17] 4.8 µM | GI50 [18] 7.57 µM | GI50 [19] 27.4 µM | GI50 [20] 11.7 µM | GI50 [21] 10 µM | GI50 [22] 17.8 µM | GI50 [23] 4.32 µM | GI50 [24] 11.8 µM | GI50 [25] 13.8 µM | GI50 [26] 14.6 µM | GI50 [27] 19.2 µM | GI50 [28] 26.4 µM | GI50 [29] 13 µM | GI50 [30] 5.9 µM | GI50 [31] 5.31 µM | GI50 [32] 13.5 µM | GI50 [33] 11.6 µM | GI50 [34] 18.7 µM | GI50 [35] 12 µM | GI50 [36] 13.8 µM | GI50 [37] 10.2 µM | GI50 [38] 10.7 µM | GI50 [39] 7.61 µM | GI50 [40] 15.6 µM | GI50 [41] 13.8 µM | GI50 [42] 14.3 µM | GI50 [43] 5.53 µM | GI50 [44] 9.57 µM | GI50 [45] 24.6 µM | GI50 [46] 29.3 µM | GI50 [47] 31.5 µM | GI50 [48] 10.6 µM | GI50 [49] 31.3 µM | GI50 [50] 16.2 µM | GI50 [51] 8.32 µM | GI50 [52] 17.3 µM | GI50 [53] 8.35 µM | GI50 [54] 10.3 µM | GI50 [55] 11.3 µM | GI50 [56] 10 µM | GI50 [57] 15.8 µM | GI50 [58] 10.5 µM | GI50 [59] 15.8 µM
65.4 µM: TGI [15]
> 100 µM: TGI [1] | TGI [3] | TGI [4] | TGI [6] | TGI [9] | TGI [10] | TGI [11] | TGI [19] | TGI [22] | TGI [23] | TGI [25] | TGI [27] | TGI [28] | TGI [32] | TGI [34] | TGI [37] | TGI [44] | TGI [46] | TGI [47] | TGI [49] | TGI [50] | TGI [51] | TGI [52] | TGI [53] | TGI [58]
56.1 µM: TGI [43]
81.1 µM: TGI [40]
26.4 µM: TGI [17]
54 µM: TGI [33]
61.1 µM: TGI [5]
40.7 µM: TGI [21]
53.3 µM: TGI [48]
59.6 µM: TGI [54]
28.9 µM: TGI [12]
65.3 µM: TGI [30]
54.3 µM: TGI [39]
27.3 µM: TGI [29]
48.3 µM: TGI [16]
67 µM: TGI [14]
77.3 µM: TGI [36]
59.3 µM: TGI [59]
65.1 µM: TGI [57]
55 µM: TGI [24]
38.2 µM: TGI [2]

COc1ccc(NC(=O)Cn2c(/C=C/c3ccc(N(C)C)cc3)nc3ccccc3c2=O)cc1
31.3 µM: TGI [53]
24.2 µM: TGI [3]
3.67 µM: TGI [38]
11.9 µM: TGI [12]
39.9 µM: TGI [33]
74.9 µM: TGI [14]
47.9 µM: TGI [45]
8.35 µM: TGI [19]
18.9 µM: TGI [43]
19.8 µM: TGI [16]
21.2 µM: TGI [20]
22.5 µM: TGI [50]
inactive: GI50 [1] 40.3 µM | GI50 [2] 7.14 µM | GI50 [3] 6.22 µM | GI50 [4] 13.6 µM | GI50 [5] 6.21 µM | GI50 [6] 3.72 µM | GI50 [8] > 100 µM | GI50 [9] 13.1 µM | GI50 [10] 7.64 µM | GI50 [11] 5.6 µM | GI50 [12] 3 µM | GI50 [13] 7.19 µM | GI50 [14] 4.88 µM | GI50 [15] 5.69 µM | GI50 [16] 4.19 µM | GI50 [17] > 100 µM | GI50 [18] 12.9 µM | GI50 [19] 3.22 µM | GI50 [20] 3.11 µM | GI50 [21] 2.61 µM | GI50 [23] 3.05 µM | GI50 [24] 2.09 µM | GI50 [25] 2.31 µM | GI50 [26] 4.35 µM | GI50 [27] > 100 µM | GI50 [28] 28.9 µM | GI50 [29] 3.95 µM | GI50 [30] 6.32 µM | GI50 [31] 4.48 µM | GI50 [32] 3.25 µM | GI50 [33] 3.86 µM | GI50 [34] 2.03 µM | GI50 [35] 2.96 µM | GI50 [36] > 100 µM | GI50 [37] > 100 µM | GI50 [38] 1.79 µM | GI50 [39] 3.63 µM | GI50 [40] 3.51 µM | GI50 [41] 2.96 µM | GI50 [42] 2.01 µM | GI50 [43] 3.65 µM | GI50 [44] > 100 µM | GI50 [45] 16.1 µM | GI50 [46] 84.5 µM | GI50 [47] 13.9 µM | GI50 [48] > 100 µM | GI50 [49] 13.5 µM | GI50 [50] 3.79 µM | GI50 [51] 5 µM | GI50 [52] 12.4 µM | GI50 [53] 2.92 µM | GI50 [55] 4.27 µM | GI50 [56] 36.7 µM | GI50 [57] > 100 µM | GI50 [58] 4.12 µM | GI50 [59] 6.07 µM
6.84 µM: TGI [21]
24 µM: TGI [29]
11.4 µM: TGI [32]
11.2 µM: TGI [23]
40.3 µM: TGI [9]
18.5 µM: TGI [6]
5.27 µM: TGI [24]
20.6 µM: TGI [51]
5.43 µM: TGI [42]
13.1 µM: TGI [35]
4.62 µM: TGI [34]
29.4 µM: TGI [15]
20.7 µM: TGI [58]
> 100 µM: TGI [1] | TGI [2] | TGI [4] | TGI [5] | TGI [8] | TGI [10] | TGI [11] | TGI [13] | TGI [17] | TGI [18] | TGI [26] | TGI [27] | TGI [28] | TGI [30] | TGI [31] | TGI [36] | TGI [37] | TGI [39] | TGI [44] | TGI [46] | TGI [47] | TGI [48] | TGI [49] | TGI [52] | TGI [55] | TGI [56] | TGI [57] | TGI [59]
6.24 µM: TGI [25]
20.4 µM: TGI [40]
10.4 µM: TGI [41]

From PubChem BioAssay (NCI)
